In US20030232409A1, “Immortal porcine cells” (Regents of the University of Minnesota, priority 2002, published 2003):

Legend:
PEGE primary cells [1] = experiment: Short-circuit current (Isc) of cell monolayers in Ussing chambers, primary cells; assay type: cell-based, porcine
Method: (§1) PEGE primary cells, isolated and cultured as previously described (Deachapunya and O'Grady, J. of Physiology, 508 (Part 1), 31-47 (1998)), and PEGE1 cells were used. Transepithelial resistance of cell monolayers was measured using the EVOM epithelial voltohmmeter coupled to Ag/AgCl “chopstick” electrodes (World Precision Instrument, New Haven, Conn.). After 10 days, the confluent culture inserts were mounted in Ussing Chambers, bathed on both sides with standard porcine Ringer solution which was maintained at 37° C., and bubbled with 95% O2 and 5% CO2. Transepithelial potential difference and Isc were measured with the use of voltage-clamp circuitry from JWT Engineering (Overland Park, Kans.). The data from the voltage clamp experiments was digitized, stored and analyzed using Workbench data acquisition software (Kent Scientific Corporation, Litchfield, Conn.) and recorded with a Compaq pentium microcomputer.
(§2) All values are presented as means±SEM. n is the number of monolayers. The differences between control and treatment means were analyzed using a t-test for paired or unpaired means where appropriate. A value of p<0.05 was considered statistically significant.

PEGE1 cells = experiment: Short-circuit current (Isc) of cell monolayers in Ussing chambers, immortalized cells; assay type: cell-based, porcine; conditions: for Mean 8 cpt cAMP-stimulated Isc / Mean 8 cpt cAMP-stimulated NPPB-sensitive Isc: n=6
Method: as §1, §2

PEGE primary cells [2] = conditions: serum-containing conditions, Deachapunya and O'Grady 1998; cited from earlier work

Question: What does the source list for NC(=NCc1ccccc1)NC(=O)c1nc(Cl)c(N)nc1N [benzamil]?
Answer: Mean benzamil-sensitive Isc (PEGE primary cells [1]; passage 4, 5 μM benzamil, n=12): 0.5 μA; Mean benzamil-sensitive Isc (PEGE1 cells; passage 19, 5 μM benzamil, n=15): 1.6 μA; Mean benzamil-sensitive Isc (PEGE1 cells; passage 44-51, 5 μM benzamil, n=15): 1.7 μA

Question: Which “Mean indomethecin-sensitive Isc” value (PEGE primary cells [1]; passage 4, 10 μM indomethecin, n=12) does the source give for COc1ccc2c(c1)c(CC(=O)O)c(C)n2C(=O)c1ccc(Cl)cc1 [indomethecin] here?
Answer: 3.4 μA

Question: What about the “Mean indomethecin-sensitive Isc” value (PEGE1 cells; passage 19, 10 μM indomethecin, n=15) of the same molecule?
Answer: 5.0 μA

Question: What about the “Mean indomethecin-sensitive Isc” value (PEGE1 cells; passage 44-51, 10 μM indomethecin, n=14) of the same molecule?
Answer: 0.6 μA

Question: With Nc1ncnc2c1nc(Sc1ccc(Cl)cc1)n2[C@@H]1O[C@@H]2COP(=O)(O)O[C@H]2[C@H]1O [8 cpt cAMP, 8(4-chlorophenylthiol) cAMP] as the molecule, how does the “Mean 8 cpt cAMP-stimulated Isc” value (PEGE primary cells [1]; passage 4, 50 μM 8 cpt cAMP, n=6) read?
Answer: 25.9 μA

Question: And the “Mean 8 cpt cAMP-stimulated Isc” value (PEGE1 cells; passage 19, 50 μM 8 cpt cAMP)?
Answer: 33.2 μA

Question: What about the “Mean 8 cpt cAMP-stimulated Isc” value (PEGE1 cells; passage 44-51, 50 μM 8 cpt cAMP) of the same molecule?
Answer: 15.6 μA

Question: Which “Effect on PGE2- or cAMP-stimulated increase in Isc” value (PEGE primary cells [2]) does the source give for O=C(O)c1cc([N+](=O)[O-])ccc1NCCCc1ccccc1 [NPPB, 5-nitro-2-(3phenylpropylamino) benzoic acid] here?
Answer: blocked

Question: What about the “Mean PGE2-stimulated NPPB-sensitive Isc” value (PEGE primary cells [1]; passage 4, 100 μM NPPB after 3 μM PGE2, n=5) of the same molecule?
Answer: 24.9 μA

Question: What about the “Mean 8 cpt cAMP-stimulated NPPB-sensitive Isc” value (PEGE primary cells [1]; passage 4, 100 μM NPPB after 50 μM 8 cpt cAMP, n=6) of the same molecule?
Answer: 17.6 μA

Question: And the “Mean PGE2-stimulated NPPB-sensitive Isc” value (PEGE1 cells; passage 19, 100 μM NPPB after 3 μM PGE2, n=6)?
Answer: 33.4 μA

Question: And the “Mean 8 cpt cAMP-stimulated NPPB-sensitive Isc” value (PEGE1 cells; passage 19, 100 μM NPPB after 50 μM 8 cpt cAMP)?
Answer: 24.3 μA

Question: And the “Mean PGE2-stimulated NPPB-sensitive Isc” value (PEGE1 cells; passage 44-51, 100 μM NPPB after 3 μM PGE2, n=5)?
Answer: 12.5 μA

Question: And the “Mean 8 cpt cAMP-stimulated NPPB-sensitive Isc” value (PEGE1 cells; passage 44-51, 100 μM NPPB after 50 μM 8 cpt cAMP)?
Answer: 14.5 μA

Question: Which results are given for CCCCC[C@H](O)/C=C/[C@H]1[C@H](O)CC(=O)[C@@H]1C/C=C\CCCC(=O)O [PGE2]?
Answer: Effect of stimulation on Isc (PEGE primary cells [2]): increase in Isc; Mean PGE2-stimulated Isc (PEGE primary cells [1]; passage 4, 3 μM PGE2, n=5): 40.3 μA; Mean PGE2-stimulated Isc (PEGE1 cells; passage 19, 3 μM PGE2, n=6): 69.0 μA; Mean PGE2-stimulated Isc (PEGE1 cells; passage 44-51, 3 μM PGE2, n=5): 35.0 μA
